Source: paper PMC7762498, “Demethoxycurcumin analogue DMC-BH exhibits potent anticancer effects on orthotopic glioblastomas” (Aging (Albany NY), 2020)

Legend:
[1] = system: glioblastoma multiforme (GBM) patient derived tumors; assay: Patient-derived tumor xenograft (PDTX) model; type: in vivo, mice; conditions: B-NDG mice; DMC-BH 7.5, 15 or 30 mg/kg, TMZ 20 mg/kg
From the text: In recent years, PDTX models have been used to mimic human tumors. These models are more clinically relevant than cell line-based xenograft models. Thus, we performed an in vivo study in a PDTX tumor model by implanting human glioma samples from a patient donor into B-NDG mice (Figure 7A).
Figure 7 In vivo anti-tumor activity of DMC-BH in the PDTX tumor model. (A) A scheme illustrating the process of creating the patient-derived tumor model. (B) Tumor growth curves of mice after treatment with 7.5 mg/kg, 15 mg/kg or 30 mg/kg DMC-BH or 20 mg/kg TMZ. (C) Average tumor weight at day 21 after different treatments. (D) Quantification of the Ki67-positive area in different treatment groups. (E) Representative H&E-stained tumor slices and Ki67 immunofluorescence labeled tumor tissue sections from different treatments groups. The data are shown as mean ± SD (n = 6).
Surgically resected human glioma tissue was obtained from a cancer patient (#0407002) following an approved Nanjing Medicinal University Institutional Review Board protocol. Within 2 hours of surgical resection, tumor tissues were cut into 1-2 mm fragments and implanted into SCID mice (B-NDG, 6 weeks old, female) using a surgical procedure approved by Nanjing Medicinal University Institutional Animal Care and Use committee. After surgery, tumor growth in the mice was monitored by palpating the abdomen twice per week. Tumors grew to 5-10 mm in diameter in about 8-10 weeks. The SCID mice bearing PDTX tumors were sacrificed, and tumor fragments of 1 to 2 mm in size were implanted into 6-week-old female SCID mice. Over 60% of the mice experienced tumor growth in approximately 6 weeks.

U87 cell line = assay: Subcutaneous human glioma xenograft in SCID mice; type: in vivo
From the text: To examine the anti-glioma effects of DMC-BH in vivo, a human glioma-SCID (severe combined immunodeficient) mouse model was established using the U87 cell line. […] The tumor volumes for the control, TMZ, DMC, and DMC-BH mice at day 21 were 1514 mm^3, 587 mm^3, 876 mm^3 and 570 mm^3, respectively. […] As shown in the Kaplan-Meier curves, the median survival was 15, 27, 19 and 35 days for the control, TMZ, DMC and DMC-BH groups, respectively (Figure 3B).
Figure 3 DMC-BH inhibited U87 glioma cell growth in vivo. Subcutaneous tumors generated from U87 cells were allowed to reach a volume of 150-200 mm^3 and were treated with 20 mg/kg TMZ, DMC or DMC-BH for 21 days. (A) Tumor volume was recorded according to treatment group at the indicated day. (B) The survival of brain tumor-bearing mice was recorded and represented in a Kaplan-Meier plot.
1-[4-Hydroxy-3-(pyrrolidin-1-ylmethyl) phenyl]-7-(4-hydroxy-3-methoxyphenyl) hepta-1,6-diene-3,5-dione, named DMC-BH, was constructed by our lab. DMC was obtained from Sigma-Aldrich (St. Louis, MO). To test the anti-glioma effect of DMC-BH in vivo, a xenograft model of human glioma was established. Four-week-old male SCID mice were purchased from Vital River Laboratory Animal Technology Co., Ltd. (Beijing, China). After a 1-week acclimatization, SCID mice were injected subcutaneously in the right flank with 6 × 10^5 […] glioma cells resuspended in 50 μL DMEM media. Treatment was initiated when the subcutaneous tumors reached an average size of 150 mm^3 to 200 mm^3. Mice received intraperitoneal injection of DMC (20 mg/kg/day), DMC-BH (20 mg/kg/day), TMZ (20 mg/kg/day) or vehicle as a control. Tumor diameter was measured every 2 days with calipers, and the tumor volume was calculated (length × width × height × 0.5). All experiments were carried out in keeping with the procedures and protocols of the Animal Ethics Committee of the First People's Hospital of Kunshan.

Compound: Cn1nnc2c(C(N)=O)ncn2c1=O [TMZ, temozolomide]
- tumor growth in PDTX model [1]: significant tumor regression
- tumor volume at day 21 (U87 cell line; U87 subcutaneous xenograft, 20 mg/kg/day intraperitoneal, 21 days, control 1514 mm^3): 587 mm^3
- median survival (U87 cell line; U87 xenograft, 20 mg/kg, control 15 days): 27 days
